Results from patent US20110201608A1 (BOEHRINGER INGELHEIM INTERNATIONAL GMBH, priority 2008, published 2011).

target: T1, Recombinant human Syk (GST-Syk kinase fusion protein) (Homo sapiens, UniProt P43405); assay: Syk Kinase Test (Kinase Glo Luminescence Kinase test); format: biochemical; details: 1 μM test substance; negative control (no kinase) = 100% inhibition, positive control (no test substance) = 0% inhibition
T1 construct: made in house
Procedure: The catalytic activity of the GST-Syk kinase fusion protein was determined using the Kinase Glo® Luminescence Kinase test of Messrs Promega. In this homogeneous test the amount of ATP remaining after the kinase reaction has been carried out is quantified by a luciferin-luciferase reaction using luminescence. The luminescence signal obtained correlates with the amount of ATP still present and thus correlates inversely with the activity of the protein kinase.
The test substances were dissolved in 100% DMSO at a concentration of 10 mM and diluted in DMSO to a concentration of 1 mM. […] GST-Syk was diluted to 6.0 nM in the test buffer and 10 μl of this dilution were used in the kinase test (final concentration of Syk=4 nM in a total volume of 15 μl).
Positive controls are the reaction mixtures that contain no test substance; negative controls are reaction mixtures that contain no kinase.
After 60 minutes, 10 μl Kinase-Glo® solution (Promega, Cat. # V6712) (heated to ambient temperature) are added to each well and incubation is continued for a further 15 minutes at ambient temperature.
The output file of the “MicroBeta TRILUX” is a text file that contains the well number and measurements obtained. […] Then from this the % inherent value for the measurement of each substance concentration was calculated using an “MS-Excel-VB macro”. […] The IC50 values were calculated from the % inhibition values using “GraphPadPrism” software (Version 5) (GraphPad Software Inc.).

| Compound | % INHB SYK at 1 μM [%] |
| --- | --- |
| c1cnc2cc(-c3ccc(N4CCOCC4)cc3)nc(Nc3ccc4cn[nH]c4c3)c2c1 [Example 1, 5-[(1H-indazol-6-yl)amino]-7-(4-morpholinophenyl)-[1,6]naphthyridine] | 82.0 |
| NC(=O)c1cccnc1Nc1nc(-c2ccc(N3CCOCC3)cc2)cc2ncccc12 [Example 2, 2-[7-(4-morpholin-4-yl-phenyl)-[1,6]naphthyridin-5-ylamino]-nicotinamide] | 72.6 |
| CNc1nc(-c2ccc(N3CCOCC3)cc2)cc2ncccc12 [Example 3] | 101.8 |
| OCCCCOc1nc(-c2ccc(N3CCOCC3)cc2)cc2ncccc12 [Example 4, 4-[7-(4-morpholinophenyl)-[1,6]naphthyridin-5-yloxy]-butan-1-ol] | 94.4 |
| CN[C@H]1CC[C@@H](Nc2nc(-c3ccc(N4CCOCC4)cc3)cc3ncccc23)CC1 [Example 9, N-methyl-N′-[7-(4-morpholin-4-yl-phenyl)-[1,6]naphthyridin-5-yl]-cyclohexane-1,4-diamine] | 86.7 |
| COc1cc(-c2cc3ncccc3c(NC[C@@H]3CCNC3)n2)ccc1N1CCOCC1 [Example 10] | 98.6 |
| O[C@H]1CC[C@@H](Nc2nc(-c3ccc(N4CCOCC4)cc3)cc3ncccc23)CC1 [Example 62, 4-[7-(4-morpholin-4-yl-phenyl)-[1,6]naphthyridin-5-ylamino]-cyclohexanol] | 76.8 |
| c1cnc2cc(-c3ccc(N4CCOCC4)cc3)nc(NCC3CNCCO3)c2c1 (stereo not shown) [Example 63] | 85.4 |
| Cc1cc(-c2cc3ncccc3c(OC[C@H]3CCCNC3)n2)ccc1N1CCOCC1 [Example 66, (S)-4-(2-methyl-4-(5-(piperidine-3-ylmethoxy)-[1,6]naphthyridin-7-yl)phenyl)morpholine] | 102.8 |
| CCOc1nc(-c2ccc(N3CCOCC3)cc2)cc2ncccc12 [Example 79, 5-Ethoxy-7-(4-morpholin-4-yl-phenyl)-[1,6]naphthyridine] | 82.9 |
| OCC#Cc1nc(-c2ccc(N3CCOCC3)cc2)cc2ncccc12 [Example 82, 3-[7-(4-morpholin-4-yl-phenyl)-[1,6]naphthyridin-5-yl]-prop-2-yn-1-ol] | 87.1 |
| CCNC(=O)NC1CN(c2nc(-c3ccc(N4CCN(C)CC4)cc3)cc3ncccc23)C1 [Example 92, 1-ethyl-3-(1-{7-[4-(4-methyl-piperazin-1-yl)-phenyl]-[1,6]naphthyridin-5-yl}-azetidin-3-yl)-urea] | 77.3 |
| CCNC(=O)N1CCCC1CNc1nc(-c2ccc(N3CCN(C)CC3)cc2)cc2ncccc12 (stereo not shown) [Example 93, 2-({7-[4-(4-methyl-piperazin-1-yl)-phenyl]-[1,6]naphthyridin-5-ylamino}-methyl)-pyrrolidin-1-carboxylic acid ethylamide] | 91.5 |
| NC(=O)N1CCN(c2nc(-c3ccc(N4CCOCC4)cc3)cc3ncccc23)CC1 [Example 98, 4-[7-(4-morpholin-4-yl-phenyl)-[1,6]naphthyridin-5-yl]-piperazine-1-carboxylic acid amide] | 86.8 |
| NC(=O)C1CCN(c2nc(-c3ccc(N4CCOCC4)cc3)cc3ncccc23)C1 (stereo not shown) [Example 107, 1-[7-(4-morpholin-4-yl-phenyl)-[1,6]naphthyridin-5-yl]-pyrrolidine-3-carboxylic acid amide] | 95.3 |
| CC(=O)N[C@H]1CC[C@@H](Nc2nc(-c3ccc(N4CCOCC4)cc3)cc3ncccc23)CC1 [Example 113, N-{4-[7-(4-morpholin-4-yl-phenyl)-[1,6]naphthyridin-5-ylamino]-cyclohexyl}-acetamide] | 94.7 |
| c1ccc(-c2nc(-c3ccc(N4CCOCC4)cc3)cc3ncccc23)cc1 [Example 132, (4-(5-phenyl-1,6-naphthyridin-7-yl)phenyl)morpholine] | 55.2 |
| CCc1nc(-c2ccc(N3CCOCC3)cc2)cc2ncccc12 [Example 140, (4-(5-ethyl-[1,6]naphthyridin-7-yl)phenyl)morpholine] | 43.3 |
| C#Cc1nc(-c2ccc(N3CCOCC3)cc2)cc2ncccc12 [Example 142, (4-(5-ethynyl-[1,6]naphthyridin-7-yl)phenyl)morpholine] | 70.3 |
